This is an account of results in US9758537B2 (Achillion Pharmaceuticals, Inc., priority 2014, dated 2017).

The structures appear in SMILES notation.

The target in this test is Human factor D (Homo sapiens (Human), UniProt P00746). Put plainly: Human Factor D Assay. It counts as biochemical. As to conditions: human factor D 80 nM, substrate Z-L-Lys-SBzl, DTNB, OD405. Here is the method: Human factor D (purified from human serum, Complement Technology, Inc.) at 80 nM final concentration is incubated with test compound at various concentrations for 5 minutes at room temperature in 50 mM Tris, 1M NaCl, pH 7.5. A synthetic substrate Z-L-Lys-SBzl and DTNB (Ellman's reagent) are added to final concentrations of 10 μM each. The increase in color is recorded at OD405 nm in a microplate in kinetic mode over 30 minutes with 30 second time points in a […]. IC50 values are calculated by non-linear regression from the percentage of inhibition of complement factor D activity as a function of test compound concentration.
Human factor D, sequence (P00746 26-253): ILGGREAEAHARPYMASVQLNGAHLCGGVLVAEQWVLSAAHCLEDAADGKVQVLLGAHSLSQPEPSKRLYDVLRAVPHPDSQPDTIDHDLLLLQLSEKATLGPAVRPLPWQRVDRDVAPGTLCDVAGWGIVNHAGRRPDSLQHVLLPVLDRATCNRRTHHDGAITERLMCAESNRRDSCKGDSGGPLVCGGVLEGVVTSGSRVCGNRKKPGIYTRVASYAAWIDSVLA
As a reminder, the IC50 is the concentration that gives 50% inhibition. The compound `CC(=O)c1cn(CC(=O)N2C[C@H](F)C[C@H]2C(=O)Nc2cccc(-c3cc(F)c(F)cc3Cl)c2F)c2ccccc12` [Compound 82, (2S,4R)-1-(2-(3-acetyl-1H-indol-1-yl)acetyl)-N-(2′-chloro-2,4′,5′-trifluorobiphenyl-3-yl)-4-fluoropyrrolidine-2-carboxamide] returned an IC50 of less than 1 µM.
The same measure for `NC(=O)c1nn(CC(=O)N2C[C@H](F)C[C@H]2C(=O)Nc2cccc(-c3cc(F)c(F)cc3Cl)c2F)c2cnccc12` [Compound 83, 1-(2-((2S,4R)-2-(2′-chloro-2,4′,5′-trifluorobiphenyl-3-ylcarbamoyl)-4-fluoropyrrolidin-1-yl)-2-oxoethyl)-1H-pyrazolo[3,4-c]pyridine-3-carboxamide]: less than 1 µM; for `CC(=O)n1cc(CC(=O)N2C[C@H](F)C[C@H]2C(=O)Nc2cccc(-c3ccccc3Cl)c2F)c2ccsc21` [Compound 90, (2S,4R)-1-(2-(6-acetyl-6H-thieno[2,3-b]pyrrol-4-yl)acetyl)-N-(2′-chloro-2-fluorobiphenyl-3-yl)-4-fluoropyrrolidine-2-carboxamide]: less than 1 µM; for `CC(=O)Nc1cccc2c1c(C(C)=O)cn2CC(=O)N1C[C@H](F)C[C@H]1C(=O)Nc1cccc(-c2ccccc2Cl)c1F` [Compound 91, (2S,4R)-1-(2-(4-acetamido-3-acetyl-1H-indol-1-yl)acetyl)-N-(2′-chloro-2-fluorobiphenyl-3-yl)-4-fluoropyrrolidine-2-carboxamide]: greater than 10 µM.
With `NC(=O)c1nn(CC(=O)N2C[C@H](F)C[C@H]2C(=O)Nc2cccc(-c3ccc(F)c(F)c3Cl)c2F)c2ccccc12` [Compound 92, 1-(2-((2S,4R)-2-(2′-chloro-2,3′,4′-trifluorobiphenyl-3-ylcarbamoyl)-4-fluoropyrrolidin-1-yl)-2-oxoethyl)-1H-indazole-3-carboxamide], the IC50 was less than 1 µM.
`CC(=O)c1cn(CC(=O)N2C[C@H](F)C[C@H]2C(=O)Nc2cccc(-c3ccc(F)c(F)c3Cl)c2F)c2ccccc12` [Compound 93, (2S,4R)-1-(2-(3-acetyl-1H-indol-1-yl)acetyl)-N-(2′-chloro-2,3′,4′-trifluorobiphenyl-3-yl)-4-fluoropyrrolidine-2-carboxamide] gave an IC50 of less than 1 µM.
`NC(=O)c1nn(CC(=O)N2C[C@H](F)C[C@H]2C(=O)Nc2cccc(-c3cc(F)cc(F)c3Cl)c2F)c2ccccc12` [Compound 94, 1-(2-((2S,4R)-2-(2′-chloro-2,3′,5′-trifluorobiphenyl-3-ylcarbamoyl)-4-fluoropyrrolidin-1-yl)-2-oxoethyl)-1H-indazole-3-carboxamide]: the IC50 is less than 1 µM.
The same measure for `CC(=O)c1cn(CC(=O)N2C[C@H](F)C[C@H]2C(=O)Nc2cccc(-c3cc(F)cc(F)c3Cl)c2F)c2ccccc12` [Compound 95, (2S,4R)-1-(2-(3-acetyl-1H-indol-1-yl)acetyl)-N-(2′-chloro-2,3′,5′-trifluorobiphenyl-3-yl)-4-fluoropyrrolidine-2-carboxamide]: less than 1 µM; for `CC(=O)c1cn(CC(=O)N2C[C@H](F)C[C@H]2C(=O)Nc2cccc(-c3ccccc3Cl)c2F)c2cccc(C#N)c12` [Compound 97, (2S,4R)-1-(2-(3-acetyl-4-cyano-1H-indol-1-yl)acetyl)-N-(2′-chloro-2-fluorobiphenyl-3-yl)-4-fluoropyrrolidine-2-carboxamide]: less than 1 µM; for `NC(=O)c1cn(CC(=O)N2C[C@H](F)C[C@H]2C(=O)Nc2cccc(-c3ccccc3Cl)c2F)c2sccc12` [Compound 98, 6-(2-((2S,4R)-2-(2′-chloro-2-fluorobiphenyl-3-ylcarbamoyl)-4-fluoropyrrolidin-1-yl)-2-oxoethyl)-6H-thieno[2,3-b]pyrrole-4-carboxamide]: less than 1 µM.
The same measure for `NC(=O)c1nn(CC(=O)N2C[C@H](F)C[C@H]2C(=O)Nc2cccc(-c3ccccc3Cl)c2F)c2ccsc12` [Compound 99, 1-(2-((2S,4R)-2-(2′-chloro-2-fluorobiphenyl-3-ylcarbamoyl)-4-fluoropyrrolidin-1-yl)-2-oxoethyl)-1H-thieno[3,2-c]pyrazole-3-carboxamide]: less than 1 µM; for `NC(=O)c1nn(CC(=O)N2C[C@H](F)C[C@H]2C(=O)Nc2cccc(-c3c(F)cc(F)cc3Cl)n2)c2cnccc12` [Compound 100, 1-(2-((2S,4R)-2-(6-(2-chloro-4,6-difluorophenyl)pyridin-2-ylcarbamoyl)-4-fluoropyrrolidin-1-yl)-2-oxoethyl)-1H-pyrazolo[3,4-c]pyridine-3-carboxamide]: less than 1 µM; for `NC(=O)c1nn(CC(=O)N2C[C@H](F)C[C@H]2C(=O)Nc2cccc(-c3c(F)cc(F)cc3Cl)c2)c2cnccc12` [Compound 101, 1-(2-((2S,4R)-2-(2′-chloro-4′,6′-difluorobiphenyl-3-ylcarbamoyl)-4-fluoropyrrolidin-1-yl)-2-oxoethyl)-1H-pyrazolo[3,4-c]pyridine-3-carboxamide]: less than 1 µM.
Under `NC(=O)c1nn(CC(=O)N2C[C@H](F)C[C@H]2C(=O)Nc2cccc(-c3ccccc3Cl)c2F)c2c1CCCC2` [Compound 104, 1-(2-((2S,4R)-2-(2′-chloro-2-fluorobiphenyl-3-ylcarbamoyl)-4-fluoropyrrolidin-1-yl)-2-oxoethyl)-4,5,6,7-tetrahydro-1H-indazole-3-carboxamide] stands less than 1 µM; under `NC(=O)c1nn(CC(=O)N2C[C@H](F)C[C@H]2C(=O)Nc2cccc(Br)n2)c2ccsc12` [Compound 106, 1-(2-((2S,4R)-2-(6-bromopyridin-2-ylcarbamoyl)-4-fluoropyrrolidin-1-yl)-2-oxoethyl)-1H-thieno[3,2-c]pyrazole-3-carboxamide], less than 1 µM; under `NC(=O)c1nn(CC(=O)N2[C@@H]3C[C@@H]3C[C@H]2C(=O)NCc2cccc(Cl)c2F)c2ccsc12` [Compound 107, 1-(2-((1R,3S,5R)-3-(3-chloro-2-fluorobenzylcarbamoyl)-2-azabicyclo[3.1.0]hexan-2-yl)-2-oxoethyl)-1H-thieno[3,2-c]pyrazole-3-carboxamide], less than 1 µM.
`COc1ncc(-c2cn(CC(=O)N3C[C@H](F)C[C@H]3C(=O)Nc3cccc(-c4ccccc4Cl)c3F)nc2C(N)=O)cn1` [Compound 110, 1-(2-((2S,4R)-2-(2′-chloro-2-fluorobiphenyl-3-ylcarbamoyl)-4-fluoropyrrolidin-1-yl)-2-oxoethyl)-4-(2-methoxypyrimidin-5-yl)-1H-pyrazole-3-carboxamide] yielded a 50% inhibitory concentration (IC50) greater than 10 µM.
`N#Cc1cccc2c(C(N)=O)nn(CC(=O)N3C[C@H](F)C[C@H]3C(=O)Nc3cccc(-c4ccccc4Cl)c3F)c12` [Compound 111, 1-(2-((2S,4R)-2-(2′-chloro-2-fluorobiphenyl-3-ylcarbamoyl)-4-fluoropyrrolidin-1-yl)-2-oxoethyl)-7-cyano-1H-indazole-3-carboxamide] gave an IC50 of less than 1 µM.
The same measure for `CC(=O)c1cn(CC(=O)N2C[C@H](F)C[C@H]2C(=O)Nc2cccc(-c3ccccc3Cl)c2F)c2c(-c3ccc(Cl)nc3)cccc12` [Compound 112, (2S,4R)-1-(2-(3-acetyl-7-(6-chloropyridin-3-yl)-1H-indol-1-yl)acetyl)-N-(2′-chloro-2-fluorobiphenyl-3-yl)-4-fluoropyrrolidine-2-carboxamide]: less than 1 µM.
Under `Cc1cc2c(s1)c(C(N)=O)nn2CC(=O)N1C[C@H](F)C[C@H]1C(=O)Nc1cccc(-c2ccccc2Cl)c1F` [Compound 113, 1-(2-((2S,4R)-2-(2′-chloro-2-fluorobiphenyl-3-ylcarbamoyl)-4-fluoropyrrolidin-1-yl)-2-oxoethyl)-5-methyl-1H-thieno[3,2-c]pyrazole-3-carboxamide] stands less than 1 µM; under `CC(=O)c1cn(CC(=O)N2C[C@H](F)C[C@H]2C(=O)Nc2cccc(-c3ccccc3Cl)c2F)c2c(-c3cn[nH]c3)cccc12` [Compound 114, (2S,4R)-1-(2-(3-acetyl-7-(1H-pyrazol-4-yl)-1H-indol-1-yl)acetyl)-N-(2′-chloro-2-fluorobiphenyl-3-yl)-4-fluoropyrrolidine-2-carboxamide], less than 1 µM; under `CC(=O)c1cn(CC(=O)N2C[C@H](F)C[C@H]2C(=O)Nc2cccc(-c3ccccc3Cl)c2F)c2c(C3CC3)cccc12` [Compound 115, (2S,4R)-1-(2-(3-acetyl-7-cyclopropyl-1H-indol-1-yl)acetyl)-N-(2′-chloro-2-fluorobiphenyl-3-yl)-4-fluoropyrrolidine-2-carboxamide], less than 1 µM.
Under `CC(=O)c1ccc(Cl)c(-c2cccc(NC(=O)[C@@H]3C[C@@H](F)CN3C(=O)Cn3nc(C(N)=O)c4ccccc43)c2F)c1` [Compound 117, 1-(2-((2S,4R)-2-(5′-acetyl-2′-chloro-2-fluorobiphenyl-3-ylcarbamoyl)-4-fluoropyrrolidin-1-yl)-2-oxoethyl)-1H-indazole-3-carboxamide] stands less than 1 µM.
`Cc1cc2c(s1)c(C(N)=O)nn2CC(=O)N1C[C@H](F)C[C@H]1C(=O)Nc1cccc(Br)n1` [Compound 118, 1-(2-((2S,4R)-2-(6-bromopyridin-2-ylcarbamoyl)-4-fluoropyrrolidin-1-yl)-2-oxoethyl)-5-methyl-1H-thieno[3,2-c]pyrazole-3-carboxamide]: the IC50 is less than 1 µM.
With `CC(=O)c1cn(CC(=O)N2C[C@H](F)C[C@H]2C(=O)Nc2cccc(Br)n2)c2ccc(C3(NC(=O)c4ncccn4)CC3)cc12` [Compound 119, N-(1-(3-acetyl-1-(2-((2S,4R)-2-(6-bromopyridin-2-ylcarbamoyl)-4-fluoropyrrolidin-1-yl)-2-oxoethyl)-1H-indol-5-yl)cyclopropyl)pyrimidine-2-carboxamide], the half-maximal inhibitory concentration (IC50) is less than 1 µM.
